From patent publication US8753875B2, “Compositions and means for diagnosing microbial infections” (priority 2007, dated 2014)
Like-named read-outs stand apart in the source and are kept apart here.

Columns and labels:
[1] = tested on: E. faecalis; set-up: key: Susceptible = S; Resistant = R; details: cited from earlier work
[2] = tested on: Citrobacter; set-up: key: Susceptible = S; Resistant = R; details: cited from earlier work
[3] = tested on: S. agalactiae; set-up: key: Susceptible = S; Resistant = R; details: cited from earlier work
[4] = tested on: P. mirabilis; set-up: key: Susceptible = S; Resistant = R; details: cited from earlier work
[5] = tested on: E. faecalis; test: Growth on Flexicult plate, susceptibility/resistance to the five antibiotics (FIG. 4, Table A); assay type: cell-based
Text: (§1) The kit was developed for urine culture in the primary health care setting. It is designed preferably as a nine cm Petri dish divided into six compartments: One larger compartment for quantitative analysis and five smaller compartments for susceptibility testing. The agar in each small compartment contains one of five antimicrobials (for Denmark and Scandinavia preferably: trimethoprim, sulfamethizole, ampicillin, nitrofurantoin and mecillinam (amdinocillin)) at a concentration adjusted to the breakpoint, such that growth in these compartments indicates resistance, and no growth indicates susceptibility. The Petri dish preferably has higher sides, approximately 2.48 cm, than the usual dish, i.e. ca. 1.48 cm. This allows a larger amount, maximum 100 ml, of urine to be poured onto the dish for inoculation.
(§2) Reading the susceptibility of the bacterial growth: Each bacterium (if more than one) is read individually: The growth in each of the antibiotic fields is compared with the growth on the control agar. […] If there is no growth (or substantially less than the control agar), then the bacterium is considered to be susceptible to the antibiotic. […] When nitrofurantoin and mecillinam are used as antibiotics, a few single colonies may be seen of the same type as the bacterium on the control agar: These are not considered to be resistant mutants but “persisters,” i.e. if retested they will appear susceptible. This is commonly seen also by disc diffusion especially for mecillinam.

[6] = tested on: Proteus mirabilis; test: as above; assay type: cell-based
Text: as §1, §2

[7] = tested on: E. coli; test: as above; assay type: cell-based
Text: as §1, §2

[8] = tested on: Enterobacter spp; test: as above; assay type: cell-based
Text: as §1, §2

[9] = tested on: Citrobacter spp.; test: as above; assay type: cell-based
Text: as §1, §2

[10] = tested on: Candida spp.; test: as above; assay type: cell-based
Text: as §1, §2

[11] = tested on: S. saprophyticus; test: as above; assay type: cell-based
Text: as §1, §2

[12] = tested on: E. faecium; test: as above; assay type: cell-based
Text: as §1, §2

[13] = tested on: P. vulgaris; test: as above; assay type: cell-based
Text: as §1, §2

[14] = tested on: Klebsiella spp.; test: as above; assay type: cell-based
Text: as §1, §2

[15] = tested on: P. aureginosa; test: as above; assay type: cell-based
Text: as §1, §2

[16] = tested on: Morganella spp.; test: as above; assay type: cell-based
Text: as §1, §2

[17] = tested on: E. coli; set-up: key: Susceptible = S; Resistant = R; details: cited from earlier work
[18] = tested on: Candida sp.; set-up: key: Susceptible = S; Resistant = R; details: cited from earlier work
[19] = tested on: Enterobacter; set-up: key: Susceptible = S; Resistant = R; details: cited from earlier work
[20] = tested on: E. coli; test: Growth of E. coli in antibiotic compartments of the platform (FIG. 3); assay type: cell-based; details: illustrated E. coli of FIG. 3
Text: The photos show growth of E. coli at different quantities of bacteria/ml urine.

[21] = Stability of the antimicrobial in the semi-solid media; assay type: physicochemical; details: pH-value of the semi-solid media adjusted to 6.0
Text: Stability of the antimicrobial in the semi-solid media may depend on the pH-value. The pH-value should preferably not exceed certain limits as this will influence the antimicrobial effect. The stability of Ampicillin and Mecillinam has been improved by adjusting the pH-value of the semi-solid media to 6.0.

[22] = tested on: Pseud. Aeruginosa; set-up: key: Susceptible = S; Resistant = R; details: cited from earlier work
[23] = tested on: Morganella; set-up: key: Susceptible = S; Resistant = R; details: cited from earlier work
[24] = tested on: Klebsiella; set-up: key: Susceptible = S; Resistant = R; details: cited from earlier work
[25] = tested on: S. saprophyticus; set-up: key: Susceptible = S; Resistant = R; details: cited from earlier work
[26] = tested on: E. faecium; set-up: key: Susceptible = S; Resistant = R; details: cited from earlier work
[27] = tested on: E. coli; details: cited from earlier work
[28] = tested on: P. vulgaris; set-up: key: Susceptible = S; Resistant = R; details: cited from earlier work

## CC1(C)S[C@@H]2[C@H](/N=C/N3CCCCCC3)C(=O)N2[C@H]1C(=O)O [Mecillinam, 6-Amidinopenicillanic acid derivatives; amdinocillin: 46-[[(hexahydro-1H-azepin-1-yl)methylene]amino]-3,3-dimethyl-7-oxo-, (2S,5R,6R)--Thia-1-azabicyclo[3.2.0]heptane-2-carboxylic acid]
[1]
  Normal susceptibility/resistance: R
[2]
  Normal susceptibility/resistance: S
[3]
  Normal susceptibility/resistance: R
[4]
  Normal susceptibility/resistance: S/R
[5]
  Susceptibility = S or Resistance = R: S
[6]
  Susceptibility = S or Resistance = R: R
[7]
  Susceptibility = S or Resistance = R: S
[8]
  Susceptibility = S or Resistance = R: R
[9]
  Susceptibility = S or Resistance = R: S
[10]
  Susceptibility = S or Resistance = R: R
[11]
  Susceptibility = S or Resistance = R: S
[12]
  Susceptibility = S or Resistance = R: S
[13]
  Susceptibility = S or Resistance = R: R
[14]
  Susceptibility = S or Resistance = R: S
[15]
  Susceptibility = S or Resistance = R: R
[16]
  Susceptibility = S or Resistance = R: R
[17]
  Normal susceptibility/resistance: S
[18]
  Normal susceptibility/resistance: R
[19]
  Normal susceptibility/resistance: S
[20]
  resistant or susceptible (growth in antibiotic compartment): susceptible
[21]
  stability in the semi-solid media: improved
[22]
  Normal susceptibility/resistance: R
[23]
  Normal susceptibility/resistance: R
[24]
  Normal susceptibility/resistance: S
[25]
  Normal susceptibility/resistance: S/R
[26]
  Normal susceptibility/resistance: R
[27]; Austria, n 126
  Antimicrobial resistance of E. coli (resistance in percent): 1.6%
[27]; Belgium, n 137
  Antimicrobial resistance of E. coli (resistance in percent): 1.5%
[27]; Canada, n 166
  Antimicrobial resistance of E. coli (resistance in percent): 1.2%
[27]; Denmark, n 85
  Antimicrobial resistance of E. coli (resistance in percent): 1.2%
[27]; Finland, n 182
  Antimicrobial resistance of E. coli (resistance in percent): 0.5%
[27]; France, n 199
  Antimicrobial resistance of E. coli (resistance in percent): 1.5%
[27]; Germany, n 138
  Antimicrobial resistance of E. coli (resistance in percent): 2.2%
[27]; Greece, n 132
  Antimicrobial resistance of E. coli (resistance in percent): 0.8%
[27]; Ireland, n 154
  Antimicrobial resistance of E. coli (resistance in percent): 0.6%
[27]; Luxembourg, n 24
  Antimicrobial resistance of E. coli (resistance in percent): 0%
[27]; Norway, n 168
  Antimicrobial resistance of E. coli (resistance in percent): 0%
[27]; Portugal, n 86
  Antimicrobial resistance of E. coli (resistance in percent): 2.3%
[27]; Spain, n 191
  Antimicrobial resistance of E. coli (resistance in percent): 1.0%
[27]; Sweden, n 193
  Antimicrobial resistance of E. coli (resistance in percent): 1.6%
[27]; Switzerland, n 122
  Antimicrobial resistance of E. coli (resistance in percent): 0%
[27]; The Netherlands, n 195
  Antimicrobial resistance of E. coli (resistance in percent): 1.5%
[27]; Total, n 2478
  Antimicrobial resistance of E. coli (resistance in percent): 1.2%
[27]; United Kingdom, n 180
  Antimicrobial resistance of E. coli (resistance in percent): 1.7%
[28]
  Normal susceptibility/resistance: R

## Cc1nnc(NS(=O)(=O)c2ccc(N)cc2)s1 [Sulfamethizole]
[5]
  Susceptibility = S or Resistance = R: R
[6]
  Susceptibility = S or Resistance = R: S
[7]
  Susceptibility = S or Resistance = R: R
[8]
  Susceptibility = S or Resistance = R: R
[9]
  Susceptibility = S or Resistance = R: S
[10]
  Susceptibility = S or Resistance = R: R
[11]
  Susceptibility = S or Resistance = R: S
[12]
  Susceptibility = S or Resistance = R: R
[13]
  Susceptibility = S or Resistance = R: S
[14]
  Susceptibility = S or Resistance = R: S
[15]
  Susceptibility = S or Resistance = R: R
[16]
  Susceptibility = S or Resistance = R: S
[20]
  resistant or susceptible (growth in antibiotic compartment): resistant

## COc1cc(Cc2cnc(N)nc2N)cc(OC)c1OC [Trimethoprim, S-(3,4,5-trimethoxybenzyl)pyrimidine-2,4-diamine]
[1]
  Normal susceptibility/resistance: S
[2]
  Normal susceptibility/resistance: S
[3]
  Normal susceptibility/resistance: S
[4]
  Normal susceptibility/resistance: S
[5]
  Susceptibility = S or Resistance = R: S
[6]
  Susceptibility = S or Resistance = R: S
[7]
  Susceptibility = S or Resistance = R: S
[8]
  Susceptibility = S or Resistance = R: S
[9]
  Susceptibility = S or Resistance = R: S
[10]
  Susceptibility = S or Resistance = R: R
[11]
  Susceptibility = S or Resistance = R: S
[12]
  Susceptibility = S or Resistance = R: S
[13]
  Susceptibility = S or Resistance = R: S
[14]
  Susceptibility = S or Resistance = R: S
[15]
  Susceptibility = S or Resistance = R: R
[16]
  Susceptibility = S or Resistance = R: S
[17]
  Normal susceptibility/resistance: S
[18]
  Normal susceptibility/resistance: R
[19]
  Normal susceptibility/resistance: S
[20]
  resistant or susceptible (growth in antibiotic compartment): susceptible
[22]
  Normal susceptibility/resistance: R
[23]
  Normal susceptibility/resistance: S
[24]
  Normal susceptibility/resistance: S
[25]
  Normal susceptibility/resistance: S
[26]
  Normal susceptibility/resistance: S
[27]; Austria, n 126
  Antimicrobial resistance of E. coli (resistance in percent): 9.5%
[27]; Belgium, n 137
  Antimicrobial resistance of E. coli (resistance in percent): 13.9%
[27]; Canada, n 166
  Antimicrobial resistance of E. coli (resistance in percent): 10.8%
[27]; Denmark, n 85
  Antimicrobial resistance of E. coli (resistance in percent): 10.6%
[27]; Finland, n 182
  Antimicrobial resistance of E. coli (resistance in percent): 5.5%
[27]; France, n 199
  Antimicrobial resistance of E. coli (resistance in percent): 15.6%
[27]; Germany, n 138
  Antimicrobial resistance of E. coli (resistance in percent): 22.5%
[27]; Greece, n 132
  Antimicrobial resistance of E. coli (resistance in percent): 13.6%
[27]; Ireland, n 154
  Antimicrobial resistance of E. coli (resistance in percent): 22.1%
[27]; Luxembourg, n 24
  Antimicrobial resistance of E. coli (resistance in percent): 16.7%
[27]; Norway, n 168
  Antimicrobial resistance of E. coli (resistance in percent): 13.1%
[27]; Portugal, n 86
  Antimicrobial resistance of E. coli (resistance in percent): 26.7%
[27]; Spain, n 191
  Antimicrobial resistance of E. coli (resistance in percent): 25.1%
[27]; Sweden, n 193
  Antimicrobial resistance of E. coli (resistance in percent): 8.8%
[27]; Switzerland, n 122
  Antimicrobial resistance of E. coli (resistance in percent): 18.9%
[27]; The Netherlands, n 195
  Antimicrobial resistance of E. coli (resistance in percent): 12.3%
[27]; Total, n 2478
  Antimicrobial resistance of E. coli (resistance in percent): 14.8%
[27]; United Kingdom, n 180
  Antimicrobial resistance of E. coli (resistance in percent): 13.3%
[28]
  Normal susceptibility/resistance: S
